Assay results: patent publication US20080015224A1, “Nitroxide superoxide dismutase mimetics to treat extracellular superoxide dismutase deficiencies” (priority 2006, published 2008)
Entries after “also recorded” stand apart in the source; their conditions may differ.

How the values were obtained:
[1] = test system: O2−. generated by xanthine plus xanthine oxidase; assay: Inhibition of O2−. generated by xanthine-xanthine oxidase in vitro (SOD mimetic activity, lucigenin chemiluminescence); assay type: biochemical; details: for Maximum inhibition, %: O2−. generated by xanthine-xanthine oxidase in vitro, means ± SE, 5 studies; for O2−. generated by a xanthine-xanthine oxidase reaction extinguished: tested in PBS at 10^−4 M
Method: The SOD activities of Ns were evaluated in vitro for their efficacy in dampening O2^−. generated by xanthine (25 μmol/l) plus xanthine oxidase (9 IU/ml). Their lipid solubility was assessed by shaking the Ns in a 50:50 mixture of PBS (Ambion, Austin, Tex.) and chloroform (CHCl3; EM Science, Gibbstown, N.J.), taking an aliquot of the PBS phase, evaporating the CHCl3phase to dryness, reconstituting it in PBS, and assessing the SOD activities in the two solutions. O2^−. was assessed by chemiluminescence with 5 μM lucigenin (AutoLumatPlus LB 953; EG&G, Berthold, Germany). The reduction in the stable peak value for chemiluminescence for each N, relative to vehicle, defined the SOD mimetic activity.
SOD activity by the nitroxides was assessed in vitro (Table 1). […] The ratio of the activity that partitioned into CHCl3 compared with PBS was examined.

[2] = test system: spontaneously hypertensive rat (SHR); assay: Acute antihypertensive response (MAP, HR) to graded intravenous doses in anesthetized SHR; assay type: in vivo; details: for acute change in MAP and HR: graded intravenous doses (nitroxides 17-270 μmol/kg; SOD 34-540 U/kg)
Method: Experiments were approved by the Georgetown University Animal Care and Use Committee. Male SHR weighing 250-350 g (Taconic, Germantown, N.Y.) were anesthetized with thiobutabarbital (Inactin; Sigma, St. Louis, Mo.) (10 mg/100 g) after halothane (Halocarbon Laboratories, River Edge, N.J.) induction. Rats received 0.9% NaCl at 2 ml/h IV up to the time of receiving drugs to maintain euvolemia. A femoral artery was cannulated with polyethelene (PE)-50 tubing connected to a digital blood pressure analyzer (Micro-Med, Louisville, Ky.). Animals were equilibrated for 45 min. Thereafter, a nitroxide (17 μmol/kg) was infused intravenously over 10 s. The mean arterial pressure (MAP) and heart rate (HR) were recorded over the first 5 min and at 10 and 15 min. This was followed by doses of 54, 72, 174, and 270 μmol/kg under similar conditions. The same protocol was followed with each nitroxide: T, 4-oxo-tempo (OT), 4-amino-tempo (AT), 3-carboxy-peroxyl (3-CTPY) (Aldrich, Milwaukee, Wis.), 3-carbomyl-proxyl (3-CP) (Sigma), and 4-trimethylammonium-2,2,6,6,-tetramethylpiperidine-1-oxyl iodide (CAT-1) (Molecular Probes, Eugene, Oreg.) (FIG. 3). Doses of bovine Cu/Zn SOD (MW 32,500; Oxis Research, Portland, Oreg.) were selected that had equivalent SOD mimetic activity in vitro to the doses of T used for intravenous studies: 34, 110, 140, 260, 350, and 540 U/kg. SOD injection followed a similar protocol to the nitroxides and was compared with vehicle-injected rats. Additional rats received injections of previously boiled SOD as a further control group. Six rats were studied in each group.
The mean±SE changes in MAP and HR were calculated from the individual dose-response relations. The responsiveness was the maximum effect, and the sensitivity was the expected dose for ED50. Data were analyzed by ANOVA with post hoc testing by the Dunnett test, where appropriate. Statistical significance was taken as P<0.05.

[3] = test system: mesenteric resistance arteries (MRAs) from EC-SOD −/− and +/+ mice; assay: Contraction of isolated mesenteric resistance arteries (myograph); details: vessels from EC-SOD −/− mice; bath addition, 20 min; tempol 10^−4 M, PEG-SOD 100 units·ml^−1, catalase 300 units·ml^−1
Method: FIG. 19: Responses of mouse isolated mesenteric resistance vessles to endothelin-1: comparison of EC-SOD +/+ with −/−. (A) Contraction to endothelin-1, (B) Superoxide production with endothelin-1. Mean±SEM values (n=6-8 per group). Response to endothelin-1 in vessels incubated for 20 min with vehicle, tempol (10^−4 M), PEG-SOD (100 units·ml^−1), and catalase (300 units·ml^−1). Compared to vehicle, ***, p<0.005.
(§1) Reactive oxygen spice (ROS) and endothelin-1 (ET-1) contribute to angiotensin-induced hypertension. We used isolated mesenteric resistance arteries (MRAs) from EC-SOD knockout (−/−) mice (n=10) and EC-SOD wild type (+/+) mice (n=10), as a model to investigate the hypothesis that microvascular ET-1 and superoxide anion (O2.^−) interact to enhance contractility. Tension and O2.^− were quantitated in real time in dihydroethidium (DHE)-loaded MRAs in a myograph equipped with a dual-emission photon detection fluorescence system to measure ethidium (Eth): DHE ratio (E/D) as a direct readout of O2.^− activity. […] PEG-SOD normalized augmented ET-1 contraction (64±4% vs 71±3%; p=ns) and prevent an increase in E/D ratio in MRAs from −/− (0.6±0.5 vs 0.5±0.8, p=ns). In summary, ET-1 generates microvascular O2.^− that enhances its vasoconstrictive action.

[4] = test system: mesenteric resistance arteries (MRAs) from EC-SOD −/− and +/+ mice; assay: Superoxide as ethidium:DHE ratio (E/D) in dihydroethidium-loaded mesenteric resistance arteries; details: dihydroethidium-loaded vessels from EC-SOD −/− mice; tempol 10^−4 M, PEG-SOD 100 units·ml^−1, catalase 300 units·ml^−1
Excerpt: as §1
A current study contrasts the responses to endothelin-1 (ET-1) in mesenteric resistance vessels from EC-SOD (−/−) and (+/+) mice. […] Parallel studies of vascular superoxide in dihydroethidium-loaded vessels show enhanced conversion to ethidium, indicating enhanced superoxide formation, in vessels from EC-SOD −/−mice. […] We conclude that in the model system of SOD deficiency caused by gene deletion of EC-SOD in the mouse, tempol can correct enhanced contractions and enhanced oxidative stress. It is thereby envisioned as being effective in preventing hypertension and cardiovascular disease.

[5] = test system: cremasteric microvessels in the anesthetized mouse; assay: In vivo EDRF (acetylcholine-induced vasodilation) responses of cremasteric microvessels; details: 10^−4 M tempol in superfusate; EC-SOD −/− mice and mice infused with Ang II 400 ng·kg^−1·min^−1 sc × 12 days
Method: FIG. 18: In vivo EDRF responses of cremasteric vessels are impaired by EC-SOD knockout or prolonged angiotensin II infusion but are restored by superfusion of tempol. Mean±SEM (n=c6 per group). Ang II infusion at 400 ng·kg^−1·min^−1 sc×12 days. T, 10^−4 M tempol in superfusate. Basal diameter 39±0.4 μm (similar in each group). Compared to EC-SOD +/+; *, p<0.05. Compared to vehicle infusion: †, p<0.05. All effects of tempol, p<0.005.
Our current studies have shown that the SOD mimetic drug tempol, when superfused over cremasteric microvessels in the anesthetized mouse, increases that acetylcholine-induced vasodilation response. This effect of acetylcholine is reduced in the EC-SOD (−/−) mouse and in normal and EC-SOD (−/−) mice infused for 12 days with Ang II which causes oxidative stress that bioinactivates nitric oxide which is a mediator of this response. […] This is important since acetylcholine-induced vasodilation is a test of endothelium-dependent relaxation (EDR). Defects in EDR are related to oxidative inactivation of nitric oxide and underlie many CVD risk factors. Thus defects in EDR could be the focus for abnormal vascular responses and increased CVD events in subjects with the R213G SNIP of EC-SOD.

[6] = measured previously in the literature; cited from earlier work
cell membranes = details: cited from earlier work
[7] = test system: O2−. generated by xanthine plus xanthine oxidase; assay: Inhibition of O2−. generated by xanthine-xanthine oxidase in vitro (SOD mimetic activity, lucigenin chemiluminescence); assay type: biochemical; details: means ± SE

Row | Compound | Maximum inhibition, % [1] | O2−. generated by a xanthine-xanthine oxidase reaction extinguished [1] | maximal reduction in MAP (comparison between compounds) ([2]; graded intravenous doses) | time to maximum reductions in MAP and HR ([2]; graded intravenous doses) | acute change in MAP and HR [2] | effect on enhanced contractions to ET-1 [3] | effect on enhanced superoxide formation with ET-1 [4] | acetylcholine-induced vasodilation (EDRF) response [5] | redox midpoint potential E1/2 [6] | permeation of cells (cell membranes) | ED50, μmol/kg [7]
1 | CC1(C)CC(O)CC(C)(C)N1[O] [T, 4-hydroxy-2,2,6,6-tetramethyl-1 piperidinyloxy] | 92 ± 1% | 92% | greater maximal fall in MAP with T than CAT-1; also recorded: greatest reductions in MAP | ≤ 1 min | decreased MAP and HR acutely | normalized | normalized | restored to normal | 800 mV | permeates cell membranes freely | –
2 | CC1(C)CC(C(=O)O)C(C)(C)N1[O] (centres unmarked) [Compound 3-CTPY, 3-carboxy-peroxyl] | 15 ± 3 % | significantly lower fraction | – | – | ineffective; also recorded: did not | – | – | – | – | – | ∞†
